Measurements as given in US12472177B2, “Bicyclic compounds and methods for their use in treating Pitt Hopkins syndrome” (NEUREN PHARMACEUTICALS LIMITED, priority 2019, dated 2025).

Legend:
Tcf4^+/− mice [1] = test: Social interaction / sociability (time sniffing a novel mouse); type: in vivo; parameters: key to Sociability: Tukey’s Multiple Comparison Test Summary: **** = p < 0.00001; ns = not significant
Method: (§1) In vivo behavioral studies were conducted in Tcf4^+/− mutant and wildtype littermate control (WT) mice by Gen.DDI (Santiago, Chile). Littermate controls consist of the genotypes Tcf4^+/+. All Tcf4 mutant mice used were heterozygous for the Tcf4 mutation because homozygous mutations of Tcf4 result in embryonic to postnatal day 1 lethality. Ten mice per treatment group, 14 weeks of age, were used for behavioral experiments. Experiments were conducted in line with the requirements of the UK Animals (Scientific Procedures) Act, 1986. The mice were housed in plastic cages (35×30×12 cm), 5 in each and habituated to the animal facilities for at least a week before commencing the test. The room temperature (21° C.±2° C.), relative humidity (55%±5%), a 12-hour light-dark cycle (lights on 7 AM to 7 PM), and air exchange were automatically controlled. The animals had free access to commercial food pellets and water. Testing was performed during the light phase of the circadian cycle, with the order of testing being determined by the principle of conducting the most stressful tests last. Assays were designed to reproduce and expand on the original behavioral characterization of Tcf4^+/− mice. Tcf4^+/− and WT control mice were treated for 6 weeks prior to testing and tested 30 minutes following a dose of cG-2-AllylP, as described in Table 2 below.
Social recognition and social memory in humans are very important. People with PTHS show lower amounts of social recognition and memory compared with people without PTHS. […] Therefore, to determine if NNZ-2591 (cG-2-AllylP) could be effective in normalizing this condition, we carried out a series of studies in mice, in which we determined the amount of time that mice spent sniffing a novel mouse.
To carry out these studies, mice were evaluated by the amount of time spent sniffing a novel mouse upon repeated exposures, to induce familiarity, and reinstatement of high levels of sniffing when a novel stimulus animal is introduced. We measured the number of bouts of sniffing in each of the groups of animals. The time spent sniffing a novel mouse is shown on the vertical axis and the animals and treatments are shown on the horizontal axis.

Tcf4^+/− mice [2] = test: Tcf4^+/− mouse model of Pitt Hopkins Syndrome, all tested behaviors (summary); type: in vivo
Method: Several genetically manipulated rodent models of PTHS have been created (Thaxton et al, 2018; Sweatt, 2013). These models share a common basis around heterozygous Tcf4 (Tcf4^+/−). Haploinsufficient mice (Tcf4^+/−) have been characterized as a model system for PTHS (Kennedy et al, 2016).
as §1

Tcf4^+/− mice [3] = test: Hind limb force (motor performance); type: in vivo, mouse; parameters: key to Test of Force (Hind Limb): Tukey’s Muliple Comparison Test Summary: **** = p < 0.00001; ns = not significant
Method: as §1
Hind limb force is an important measure of the ability of a mouse to jump away from a predator. However, animals with the Tcf4^+/− mutation have substantially lower ability to jump away from a predator, making this mutation very serious and potentially life threatening. Hind limb force is also considered a surrogate for motor function in humans. To determine if NNZ-2591 (cG-2-AllylP) might provide a helpful treatment for this condition, we carried out a series of studies in which we measured hind limb force.

[4] = Tcf4^+/− + cG-2-AllylP (100 mg/kg) vs WT + cG-2-AllylP (200 mg/kg)
[5] = Tcf4^+/− + vehicle vs Tcf4^+/− + cG-2-AllylP (100 mg/kg)
[6] = Tcf4^+/− + vehicle vs Tcf4^+/− + cG-2-AllylP (200 mg/kg)
[7] = Tcf4^+/− + vehicle vs WT + cG-2-AllylP (100 mg/kg)
[8] = Tcf4^+/− + vehicle vs WT + cG-2-AllylP (200 mg/kg)
[9] = WT + cG-2-AllylP (100 mg/kg) vs Tcf4^+/− + cG-2-AllylP (100 mg/kg)
[10] = WT + cG-2-AllylP (100 mg/kg) vs Tcf4^+/− + cG-2-AllylP (200 mg/kg)
[11] = WT + cG-2-AllylP (100 mg/kg) vs WT + cG-2-AllylP (200 mg/kg)
[12] = WT + cG-2-AllylP (200 mg/kg) vs Tcf4^+/− + cG-2-AllylP (200 mg/kg)
[13] = WT + vehicle vs Tcf4^+/− + cG-2-AllylP (100 mg/kg)
[14] = WT + vehicle vs Tcf4^+/− + cG-2-AllylP (200 mg/kg)
[15] = WT + vehicle vs WT + cG-2-AllylP (100 mg/kg)
[16] = WT mice, 100 mg/kg oral BID 6 weeks
[17] = WT mice, 200 mg/kg oral BID 6 weeks

C=CC[C@]12CCCN1C(=O)CNC2=O [cG-2-AllylP, (8aS)-Allyl-hexahydropyrrolo[1,2-a]pyrazine-1,4-dione]
Sociability: Tukey’s Multiple Comparison Test Summary (Tcf4^+/− mice [1]; Tcf4^+/− + cG-02-AllylP (100 mg/kg) vs Tcf4^+/− + cG-2-AllylP (200 mg/kg)): ns | Sociability: Tukey’s Multiple Comparison Test Summary (Tcf4^+/− mice [1]; [4]): ns | Sociability: Tukey’s Multiple Comparison Test Summary (Tcf4^+/− mice [1]; [5]): **** (**** = p < 0.0001) | Sociability: Tukey’s Multiple Comparison Test Summary (Tcf4^+/− mice [1]; [6]): **** (**** = p < 0.0001) | Sociability: Tukey’s Multiple Comparison Test Summary (Tcf4^+/− mice [1]; [7]): **** (**** = p < 0.0001) | Sociability: Tukey’s Multiple Comparison Test Summary (Tcf4^+/− mice [1]; [8]): **** (**** = p < 0.0001) | Behavior Normalized to WildType Levels: Sociability (Tcf4^+/− mice [1]; Tcf4^+/− mice, 100 mg/kg): ✓ | Time spent sniffing a novel mouse (Tcf4^+/− mice [1]; Tcf4^+/− mice, 100 mg/kg oral BID 6 weeks, compared to Tcf4^+/− mice treated with vehicle only): substantial and statistically significant increases | Behavior Normalized to WildType Levels: Sociability (Tcf4^+/− mice [1]; Tcf4^+/− mice, 200 mg/kg): ✓ | Time spent sniffing a novel mouse (Tcf4^+/− mice [1]; Tcf4^+/− mice, 200 mg/kg oral BID 6 weeks, compared to Tcf4^+/− mice treated with vehicle only): substantial and statistically significant increases | Sociability: Tukey’s Multiple Comparison Test Summary (Tcf4^+/− mice [1]; [9]): ns | Sociability: Tukey’s Multiple Comparison Test Summary (Tcf4^+/− mice [1]; [10]): ns | Sociability: Tukey’s Multiple Comparison Test Summary (Tcf4^+/− mice [1]; [11]): ns | Sociability: Tukey’s Multiple Comparison Test Summary (Tcf4^+/− mice [1]; [12]): ns | Sociability: Tukey’s Multiple Comparison Test Summary (Tcf4^+/− mice [1]; [13]): ns | Sociability: Tukey’s Multiple Comparison Test Summary (Tcf4^+/− mice [1]; [14]): ns | Sociability: Tukey’s Multiple Comparison Test Summary (Tcf4^+/− mice [1]; [15]): ns | Time spent sniffing a novel mouse (Tcf4^+/− mice [1]; [16]): nearly identical times | Time spent sniffing a novel mouse (Tcf4^+/− mice [1]; [17]): nearly identical times | Rescue of tested behaviors of the PTHS phenotype (Tcf4^+/− mice [2]; Tcf4^+/− mice, 100 mg/kg for 6 weeks): rescued all tested behaviors, except for fear conditioning | Rescue of tested behaviors of the PTHS phenotype (Tcf4^+/− mice [2]; Tcf4^+/− mice, 200 mg/kg for 6 weeks): rescued all tested behaviors of the PTHS phenotype | Rescue of the phenotype of the Tcf4^+/− knockout mouse model (Tcf4^+/− mice [2]; Tcf4^+/− mice, oral administration for 6 weeks): can rescue the phenotype | Impact on wild type control mice (Tcf4^+/− mice [2]; WT mice, oral administration for 6 weeks): no impact | Test of Force (Hind Limb): Tukey’s Muliple Comparison Test Summary (Tcf4^+/− mice [3]; Tcf4^+/− + cG-2-AllylP (100 mg/kg) vs Tcf4^+/− + cG-2-AllylP (200 mg/kg)): ns | Test of Force (Hind Limb): Tukey’s Muliple Comparison Test Summary (Tcf4^+/− mice [3]; [4]): ns | Test of Force (Hind Limb): Tukey’s Muliple Comparison Test Summary (Tcf4^+/− mice [3]; [5]): **** (**** = p <0.00001) | Test of Force (Hind Limb): Tukey’s Muliple Comparison Test Summary (Tcf4^+/− mice [3]; [6]): **** (**** = p <0.00001) | Test of Force (Hind Limb): Tukey’s Muliple Comparison Test Summary (Tcf4^+/− mice [3]; [7]): **** (**** = p <0.00001) | Test of Force (Hind Limb): Tukey’s Muliple Comparison Test Summary (Tcf4^+/− mice [3]; [8]): **** (**** = p <0.00001) | Behavior Normalized to WildType Levels: Force (Tcf4^+/− mice [3]; Tcf4^+/− mice, 100 mg/kg): ✓ | Hind limb force (Tcf4^+/− mice [3]; Tcf4^+/− mice, 100 mg/kg oral BID 6 weeks): nearly identical to those produced by WT mice | Behavior Normalized to WildType Levels: Force (Tcf4^+/− mice [3]; Tcf4^+/− mice, 200 mg/kg): ✓ | Hind limb force (Tcf4^+/− mice [3]; Tcf4^+/− mice, 200 mg/kg oral BID 6 weeks): nearly identical to those produced by WT mice | Test of Force (Hind Limb): Tukey’s Muliple Comparison Test Summary (Tcf4^+/− mice [3]; [9]): ns | Test of Force (Hind Limb): Tukey’s Muliple Comparison Test Summary (Tcf4^+/− mice [3]; [10]): ns | Test of Force (Hind Limb): Tukey’s Muliple Comparison Test Summary (Tcf4^+/− mice [3]; [11]): ns | Test of Force (Hind Limb): Tukey’s Muliple Comparison Test Summary (Tcf4^+/− mice [3]; [12]): ns | Test of Force (Hind Limb): Tukey’s Muliple Comparison Test Summary (Tcf4^+/− mice [3]; [13]): ns | Test of Force (Hind Limb): Tukey’s Muliple Comparison Test Summary (Tcf4^+/− mice [3]; [14]): ns | Test of Force (Hind Limb): Tukey’s Muliple Comparison Test Summary (Tcf4^+/− mice [3]; [15]): ns | Test of Force (Hind Limb): Tukey’s Muliple Comparison Test Summary (Tcf4^+/− mice [3]; WT + vehicle vs WT + cG-2-AllylP (200 mg/kg)): ns | Hind limb force (Tcf4^+/− mice [3]; [16]): about the same levels of force as vehicle-treated WT mice | Hind limb force (Tcf4^+/− mice [3]; [17]): about the same levels of force as vehicle-treated WT mice
